Measurements taken from publication PMC6863902, “Functional and structural basis of E. coli enolase inhibition by SF2312: a mimic of the carbanion intermediate” (Scientific Reports, 2019).
“And” between values parts separate entries of the source, which are not always exact repeats. Equal values may be shown once. Read-outs that look alike come from different tables or passages of the source.

How the values were obtained:
[1] = target: T1, recombinant E. coli enolase (Escherichia coli, UniProt P0A6P9); assay: E. coli enolase enzymatic inhibition assay (PEP absorbance at 240 nm); type: biochemical; details: for IC50: enolase 40 nM, 0.5 mM 2-PGA, 25 °C; for Ki: from IC50 by Cheng-Prusoff equation and KM
T1 construct: made in house
T1 sequence (P0A6P9 whole entry): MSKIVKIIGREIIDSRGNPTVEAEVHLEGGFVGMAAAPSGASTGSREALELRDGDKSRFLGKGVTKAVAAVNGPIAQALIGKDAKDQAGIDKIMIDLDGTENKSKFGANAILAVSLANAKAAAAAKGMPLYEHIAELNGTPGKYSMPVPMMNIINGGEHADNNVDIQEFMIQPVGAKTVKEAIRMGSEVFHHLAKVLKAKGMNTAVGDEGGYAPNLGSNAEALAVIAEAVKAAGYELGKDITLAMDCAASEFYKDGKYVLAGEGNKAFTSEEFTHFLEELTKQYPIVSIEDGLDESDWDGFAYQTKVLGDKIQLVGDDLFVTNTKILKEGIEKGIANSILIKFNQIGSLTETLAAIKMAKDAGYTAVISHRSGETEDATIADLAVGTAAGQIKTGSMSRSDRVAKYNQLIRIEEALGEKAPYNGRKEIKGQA
Description: To assess the relative affinity of SF2312 and KSF for enolase, the inhibitory constant, Ki, was determined from IC50 values using the Cheng-Prusoff equation and KM values.
The activity and inhibition of E. coli enolase described in this study was carried out using the procedure as we previously reported. Briefly, enolase activity was measured at 25 °C in the forward (formation of PEP from 2‐PGA) direction by direct monitoring of the increase in PEP absorbance at 240 nm, using a DU 640 spectrophotometer (Beckman). The standard assay contained 50 mM Tris pH 8.0, 0.1 M KCl, 0.5 mM 2-PGA and 1 mM MgSO4. The reactions were carried out at a final volume of 500 μL. Initial velocities came from the slopes of linear progress curves of 1 minute duration. One unit of enolase activity was defined as the amount of protein which catalyzes the formation of 1 μmole PEP from 2-PGA in 1 minute. The concentration of PEP was determined using a molar extinction coefficient (Ɛ240nm = 1400 M^−1 cm^1).
Inhibition of enolase activity by SF2312 and its analog, KSF was performed at a constant enolase concentration of 40 nM. The compounds, supplied in water, were preincubated with protein at concentrations ranging from 2 nM to 20 µM for 5 minutes in the assay buffer consisting of 50 mM Tris pH 8.0, 0.1 M KCl and 1 mM MgSO4. The reaction was initiated by the addition of 0.5 mM 2-PGA. The decrease in enolase activity upon inhibition was monitored at 5 second intervals for a period of 5 minutes at λ =240 nm. The average half maximal inhibitory concentrations (IC50) was calculated from initial rates of absorbance increase plotted as a function of ligand concentration using GraphPad Prism software (Fig. 2). Ki values were calculated using the Cheng-Prusoff equation from the experimental IC50 and Km values.

[2] = target: T1, recombinant E. coli enolase; assay: Differential scanning calorimetry thermal unfolding of enolase with inhibitors; type: binding; details: for protein thermal melting point (Tm): enolase 6 μM with ligand 60 μM, apo enolase 52.7 °C; for shift of thermal melting point: versus enolase without inhibitor (∼53 °C)
Description: We used differential scanning calorimetry to analyze the direct in vitro binding of SF2312 and KSF to recombinant E. coli enolase (see Fig. 3). […] Upon overnight treatment with SF2312, the protein thermal melting point was ~82 °C, a shift of ∼29 °C.
The DCS experiment was performed as described previously. Prior to analysis, purified E. coli enolase was buffer exchanged into 20 mM HEPES (pH 7.0), 50 mM NaCl and 2 mM MgCl2. The concentrations of protein and ligand were adjusted to 6 μM and 60 μM, respectively. Protein samples with and without ligand were heated from 0–120 °C at 1 °C/min using a NanoDSC instrument (TA instruments). The samples were degassed for 15 minutes prior to injection into the calorimeter cell. The reference cell was filled with buffer for all runs. A pressure of 3 atm was applied to both cells during the run. The excess heat capacity scans for the protein transitions were obtained by subtracting a control scan of buffer versus buffer. The data were corrected for the difference in heat capacity between the initial and the final state by using a sigmoid baseline in the NanoAnalyze software (TA instruments) and a two-state transition model was used to determine the denaturation temperature (Tm) (Fig. 3).

P. aeruginosa ATCC 27853 = assay: MIC, microdilution broth assay; type: cell-based, Pseudomonas aeruginosa
Source text: (§1) To evaluate the activity of SF2312 against Gram-positive and Gram-negative bacteria, we have determined the minimal inhibitory concentration (MIC) for Escherichia coli ATCC 25922, Staphylococcus aureus ATCC […], Pseudomonas aeruginosa ATCC 27853, and Acinetobacter baumannii ATTC 19606 using the microdilution broth assay based on Clinical and Laboratory Standards Institute. Concentrations of SF2312 and the standard antibiotics tested were serially diluted to the following ranges: SF2312, 300 to 0.2 μg/mL; trimethoprim 10 to 0.01 μg/mL and fosfomycin, 20 to 0.040 μg/mL. For synergy studies, using the checkerboard method the following concentration range was used: fosfomycin 10 to 0.156 μg/mL and SF2312 100 to 0.05 μg/mL. The cation-adjusted Mueller-Hinton broth was supplemented with 25 μg/mL glucose-6-phosphate. Growth was monitored at Abs 600 nm. The MIC of each antimicrobial agent alone and in combination was defined as the lowest concentration that inhibited visible growth of the organism and were determined in duplicate.

ENO1-rescued cells = tested on: ENO1-rescued cells; set-up: method as in earlier work; details: isogenic ENO1-rescued glioma cells; ref 5 (Leonard et al.); cited from earlier work
S. aureus ATCC 43300 = assay: MIC, microdilution broth assay; type: cell-based; details: Staphylococcus aureus
Source text: as §1

E. coli ATCC 25922 [3] = assay: MIC, microdilution broth assay; type: cell-based; details: Escherichia coli
Source text: as §1

A. baumannii ATCC 19606 = assay: MIC, microdilution broth assay; type: cell-based, Acinetobacter baumannii
Source text: as §1

E. coli ATCC 25922 [4] = assay: Checkerboard synergy of SF2312 with fosfomycin; type: cell-based, Escherichia coli; details: for MIC: Escherichia coli; for maximum drop of E. coli MIC when co-administered: SF2312 co-administered with fosfomycin
Description: It should be noted that the target of fosfomycin, UDP-N-acetylglucosamine enolpyruvyl transferase (MurA), acts immediately downstream of enolase utilizing PEP in the first step of peptidoglycan synthesis. Since targeting two sequential enzymes in the same metabolic pathway can be a powerful synergistic mechanism for two antibiotics, an evidence for synergy between SF2312 and fosfomycin was assessed by the checkerboard method. […] The observed synergy supports the notion that the antibacterial activity of SF2312 is due to the inhibition of enolase since, fosfomycin is known to have minimal to no effect on the enzymes utilizing PEP, such as enolase.
as §1
The definition of synergy used in these studies was the fractional inhibitory concentration (FIC) index, represented by the formula FIC= (MIC of fosfomycin in combination/MIC of fosfomycin alone) + (MIC of SF2312 in combination/MIC of the SF2312 alone). A calculated FIC index of less than 0.5 represented a synergistic effect (i.e., total effect greater than the sum of the individual antibiotic effects), a value between 0.5–2 represented an additive effect (i.e. no additional contribution from including the second antibiotic, compared with when the first antibiotic. A value greater than 2 represented an antagonistic effect (i.e., total effect less than the sum of the individual effects)[26].

[5] = CAHM media with 25 μg/mL Glucose-6-Phosphate

## O=C1CC(P(=O)(O)O)C(=O)N1O (stereo not drawn) [KSF, (1-hydroxy-2,5-dioxopyrrolidin-3-yl)phosphonic acid]
[1]
  IC50: 7.67 µM and 7.7 µM
  Ki: 1400 nM
[1]; ratio of IC50 values
  loss in activity between SF2312 and KSF: over 400 fold
[2]
  protein thermal melting point (Tm): 70.85 °C
  shift of thermal melting point: ~18 °C

## O=C1C(P(=O)(O)O)CC(O)N1O (stereo not drawn) [SF2312, 3-Dihydroxyphosphoryl-1-,5-dihydroxy-2-pyrrolidone]
[1]
  IC50: 0.0184 ± 0.00284 µM
  Ki: 3.4 nM
P. aeruginosa ATCC 27853; [5]
  MIC: 50 µg/mL
P. aeruginosa ATCC 27853; Pseudomonas aeruginosa, ATCC27853
  MIC: 50 µg/mL
[2]
  protein thermal melting point (Tm): ~ 82 °C and 81.75 °C
  shift of thermal melting point: ~29 °C
ENO1-rescued cells
  GI50: > 200 µM
S. aureus ATCC 43300; ATCC43300, CAHM media with 25 μg/mL Glucose-6-Phosphate
  MIC: 20 µg/mL
S. aureus ATCC 43300; ATCC43300, CAHM media without Glucose-6-Phosphate
  MIC: 100 µg/mL
E. coli ATCC 25922 [3]; ATCC25922, CAHM media with 25 μg/mL Glucose-6-Phosphate
  MIC: 100 µg/mL
E. coli ATCC 25922 [3]; ATCC25922, CAHM media without Glucose-6-Phosphate
  MIC: 400 µg/mL
A. baumannii ATCC 19606; Acinetobacter baumannii, ATCC19606
  MIC: > 400 µg/mL
A. baumannii ATCC 19606; [5]
  MIC: >400 µg/mL
E. coli ATCC 25922 [4]; ATCC25922, read-out: MIC alone
  MIC: 100 µg/mL
E. coli ATCC 25922 [4]
  maximum drop of E. coli MIC when co-administered: 16 fold

## C[C@@H]1O[C@@H]1P(=O)(O)O [fosfomycin]
P. aeruginosa ATCC 27853; [5]
  MIC: 5 µg/mL
P. aeruginosa ATCC 27853; Pseudomonas aeruginosa, ATCC27853, CAHM media without Glucose-6-Phosphate, read-out: MIC
  MIC: 5 µg/mL
S. aureus ATCC 43300; ATCC43300, CAHM media with 25 μg/mL Glucose-6-Phosphate, read-out: MIC
  MIC: 2.5 µg/mL
S. aureus ATCC 43300; ATCC43300, CAHM media without Glucose-6-Phosphate, read-out: MIC
  MIC: 20 µg/mL
E. coli ATCC 25922 [3]; ATCC25922, CAHM media with 25 μg/mL Glucose-6-Phosphate, read-out: MIC
  MIC: 1.25 µg/mL
E. coli ATCC 25922 [3]; ATCC25922, CAHM media without Glucose-6-Phosphate, read-out: MIC
  MIC: > 10 µg/mL
A. baumannii ATCC 19606; Acinetobacter baumannii, ATCC19606, CAHM media without Glucose-6-Phosphate, read-out: MIC
  MIC: > 20 µg/mL
A. baumannii ATCC 19606; [5]
  MIC: >20 µg/mL
E. coli ATCC 25922 [4]; ATCC25922, checkerboard, partner agent 0 μg/mL, 25 μg/mL glucose-6-phosphate, read-out: MIC alone
  MIC: 1.25 µg/mL
E. coli ATCC 25922 [4]
  maximum drop of E. coli MIC when co-administered: 4 fold
